Values joined by “and” are separate entries in the source; they are usually repeats but may differ in a detail not shown here. Equal values may be shown once.
Legend:
[1] = test system: MDA-MB-231; test: Cell cycle analysis (propidium iodide, flow cytometry); format: cell-based, human; conditions: 48 hours
Method: (§1) Adherent cells were trypsinyzed, washed twice with PBS and filtered through a […] cell sieve. DNA content was assessed by flow cytometry. Cells were seeded at densities of 1.5×10^5 cells (MDA-MB-231, MDA-MB-436), or 4×10^5 cells (MCF-7 and MCF10A), or 2×10^5 cells (SW480, HT-29), or 5×10^5 cells (HCT116), per well in DMEM with 10% FBS in 6-well plate culture dishes. […] After 48 hours, cells were washed twice with PBS (pH 7.4), centrifuged at 360 g for 10 minutes at 4° C., and fixed in chilled ethanol (70%; v/v in PBS) with gentle vortex mixing. To determine their DNA contents, the cells were stained with 40 μg/ml propidium iodide (hereinafter PI) and analyzed using a FACSCalibur flow cytometer and CellQuest analysis software (Becton Dickinson, San Jose, Calif.). Where phosphoHistone-H3 staining was carried out, cells were incubated with polyclonal antibody against phosphoHistone H3 and then with secondary Goat anti-rabbit IgG-conjugated to FITC prior to PI staining.

[2] = test system: MCF-7 mammospheres; test: Mammosphere formation; format: cell-based, human; conditions: for Dose to block/inhibit mammosphere formation, fold lower than for monolayer growth: MCF-7
Method: Adherent cells were gently trypsinized, (0.05% trypsin/EDTA) washed twice in PBS and filtered through a […] cell sieve to obtain a single cell suspensions. Cells were diluted to a concentration of 10,000 cell/ml in serum-free phenol-red free MEBM (MEGM Bulletkit, Lonza) supplemented with 5 μg/ml bovine insulin, 20 ng/ml recombinant epidermal growth factor, 20 ng/ml basic fibroblast growth factor (Gibco), 1×B27 supplement, 0.5 μg/ml hydrocortisone (MEGM Bulletkit, Lonza). For MDA-MB-231 mammosphere cultures serum-free phenol red-free CnT-27 medium with growth additives (CellnTEC Advanced cell systems, Bern, Switzerland) was used as previously described. 0.1 ml was seeded per well of a Ultralow attachment 96 well plates. The following day the indicated doses of GR-24 (ppm) or vehicle alone (0.6% acetone f/c) were added. Media was replenished every 3-4 days. Self-renewal capacity of the mammospheres was determined by re-plating and producing further generations of mammospheres. Secondary mammospheres were cultivated by dissociation (trypsinization with gently vortexing) of 10-14 day old primary mammospheres. Single cell suspensions were obtained as described above.
(§2) Given the similar effects the other strigolactone analogs had on breast cancer cell line growth compared to GR-24, we anticipated that the strigolactone analogs would also have similar effects on MCF-7 primary mammosphere formation (FIG. 10): MCF-7 cells were seeded in MEBM media into low attachment, 96 well plates in duplicate at 3000 cells per well. The same day the indicated doses of strigolactone analogs were added. After 7 days representative images were taken. […] Like GR-24, the doses required to inhibit mammosphere formation are lower than that required to inhibit proliferation in monolayer cultures (5 fold lower; ST-362 and MEB-55, 3 fold lower; ST-357). To determine if the sensitivity to strigolactone analogs treatments was specific to mammosphere formation or whether it extended to the integrity and survival of mature mammospheres, MCF-7 mammospheres were grown in the absence of strigolactone analogs and after 7 days (or once mammospheres had reached a mean diameter of over […]), strigolactone analogs were added to the growth media (FIG. 10) at the indicated doses. MCF-7 cells were seeded in MEBM media into low attachment, 96 well plates in duplicate at 3000 cells per well and primary mammospheres left to grow for 7 days. At which time the indicated doses of strigolactone analogs were added to the media. FIG. 11A is a representative image of mammospheres treated with 5 ppm concentrations, showing dissociation after 2 days of exposure to strigolactone analogs. […] Following […] treatment, mammospheres were monitored visually after 24 and 48 hours. No changes were observed following 24 hours of strigolactone analogs treatment. […] At 5 ppm concentrations EG-5, EG-9C, ST-357, ST-362 and MEB-55 reduce mammosphere numbers from 86.7+6.8 (vehicle control) to 23+5, 38+6.2, 6+2, 8.3+3.5 and 9.3+1.5%, respectively. At 2.5 ppm concentrations, mammosphere numbers were reduced to 35+6.9 (EG-5), 52+12.3 (EG-9C), 22+8.5 (ST-357), 6+1.7 (ST-362) and 20.7+8.6 (MEB-55). […] XTT viability assays were also carried out on dissociated mammospheres. At concentrations of 5 ppm, EG-5, ST-362 and MEB-55 reduced viability to 3.7+0.5, 25.5+8.8 and 4.6+1.1% respectively.

[3] = test system: DU145; test: XTT viability assay; format: cell-based, human; conditions: DU145, 3 days
Method: (§3) Viability was assayed after 3 days (XTT, ATCC). IC50 concentrations are indicated (Table 3 above).

[4] = test system: HCT116; test: XTT viability assay; format: cell-based, human; conditions: HCT116, 3 days
Method: as §3

[5] = test system: HT-29; test: XTT viability assay; format: cell-based, human; conditions: HT-29, 3 days
Method: as §3

[6] = test system: K562; test: XTT viability assay; format: cell-based, human; conditions: K562, 3 days
Method: as §3

[7] = test system: LNCaP; test: XTT viability assay; format: cell-based, human; conditions: 3 days
Method: as §3

[8] = test system: MCF-7; test: XTT viability assay; format: cell-based, human; conditions: MCF-7, 3 days
Method: as §3

[9] = test system: MDA-MB-231; test: XTT viability assay; format: cell-based, human; conditions: for IC50 at 72 h: MDA-MB-231, 3 days
Method: as §3

[10] = test system: PC3; test: XTT viability assay; format: cell-based, human; conditions: PC3, 3 days
Method: as §3

[11] = test system: SW480; test: XTT viability assay; format: cell-based, human; conditions: SW480, 3 days
Method: as §3

[12] = test system: T47D; test: XTT viability assay; format: cell-based, human; conditions: 3 days
Method: as §3

[13] = test system: U20S; test: XTT viability assay; format: cell-based, human; conditions: 3 days
Method: as §3

[14] = test system: BJ fibroblast; test: Cell cycle analysis (propidium iodide, flow cytometry); format: cell-based, human; conditions: 48 hours
Method: as §1

[15] = test system: MCF-7 mammospheres; test: cells; format: cell-based, human; conditions: for Mammosphere numbers (>100 μM), percentage of vehicle treated control: 5 days; for viability at 5 ppm: Homo sapiens, MCF7, read-out: XTT viability of dissociated mammospheres; for Mammosphere morphology: 2.5-5 ppm, after 48 hours
Method: as §2

[16] = test system: MCF10A; conditions: 3 days
Method: Results are presented as Average±SD of replicate analyses and are either representative of, or inclusive of at least two independent experiments. Statistical analyses were performed using student's t-test (2-tailed, paired) versus vehicle controls and are regarded as being significant when P<0.05(*). Higher powers (p<0.01, p<0.001) are also employed and indicated in each figure legend. IC50 doses for strigolactone analogs were calculated by interpolation of the sigmoidal dose response curves (Graphpad Prism 4.0 software). Briefly, linear regression was performed between relevant y-axis data points and interpolation calculated for x-axis unknowns.
Cells were seeded into a 96 well plates at 1500 cells per well (MCF-10, PC3, DU145, MDA-MB-231, MDA-MB-436, HT-29, SW480), 1000 cells per well (K562) or 4000 cells per well (MCF-7, HCT116) in triplicate in normal growing media (with the exception of K562, a non-adherent leukemic cell line which was seeded in phenol-free DMEM supplemented with 10% charcoal-stripped FBS). The following day media was replaced with phenol-free DMEM supplemented with 10% charcoal stripped FBS and the indicated final concentrations of strigolactone analog or vehicle (acetone) alone. Cells were incubated for 3 days, at which time XTT (2,3,-bis(2-methoxy-4-nitro-5-sulfophenyl)-5-[(phenylamino)-carbonyl]-2H-tetrazolium inner salt) reduction was used to quantify viability according to manufacturer's instruction (ATCC). Cells were incubated with XTT reagent for 2-3 hours at 37° C. in a humidified 5% CO2-95% air atmosphere. Absorbance was recorded by a photometer [sequence]luor Plus, Tecan (Salzburg, Austria) at 450 nm with 750 nm of reference wavelength. Cell survival was estimated from the equation: % cell survival=100×(At−Ac), where At and Ac are the absorbencies (450 nm) of the XTT colorimetric reaction (ATCC) in treated and control cultures respectively minus non-specific absorption measured at 750 nm. Absorbance of medium alone was also deducted from specific readings.
MCF-10A cells were included as an example of a non-tumorigenic line. XTT viability assays were carried out in the presence of the indicated doses of strigolactone analogs following 3 days of treatment. Resulting differences in absorbance readings following strigolactone analogs treatment reflect changes in proliferation and cell survival (FIG. 7A-C): Cells were seeded into 96 well plates in normal growing media. The following day media was replaced with phenol-free DMEM supplemented with 10% charcoal-stripped serum and the indicated doses of strigolactone analog or vehicle (cont.) alone. Viability was assayed after 3 days (XTT, ATCC).

[17] = 5 ppm, vehicle control 86.7+6.8

| Structure (SMILES) | Mammosphere formation ([2]; 1 ppm, p<0.01) | Dose to block/inhibit mammosphere formation, fold lower than for monolayer growth [2] [fold] | IC50 at 72 h [3] [ppm] | IC50 at 72 h [4] [ppm] | IC50 at 72 h [5] [ppm] | IC50 at 72 h [6] [ppm] | IC50 at 72 h [7] [ppm] | IC50 at 72 h [8] [ppm] | IC50 at 72 h [9] [ppm] | IC50 at 72 h [10] | IC50 at 72 h [11] [ppm] | IC50 at 72 h [12] [ppm] | IC50 at 72 h [13] [ppm] | Mammosphere formation ([2]; 5 ppm and above) | Mammosphere numbers (>100 μM), percentage of vehicle treated control ([15]; 2.5 ppm) | Mammosphere numbers (>100 μM), percentage of vehicle treated control [15, 17] | viability at 5 ppm [15] [%] | IC50 at 72 h [16] [ppm] | Mammosphere growth ([2]; 2.5 ppm) | Mammosphere morphology [15] | further results |
| --- | --- | --- | --- | --- | --- | --- | --- | --- | --- | --- | --- | --- | --- | --- | --- | --- | --- | --- | --- | --- | --- |
| CC1=C[C@H](O/C=C2/C(=O)O[C@@H]3c4ccccc4C[C@H]23)OC1=O (relative stereo) [GR-24, (3aR*,8bS*,E)-3-(((R*)-4-methyl-5-oxo-2,5-dihydrofuran-2-yloxy)methylene)-3,3a,4,8b-tetrahydro-2H-indeno[1,2-b]furan-2-one] | severely attenuated | 5.7 | – | – | – | – | – | – | – | – | – | – | – | – | – | – | – | – | – | – | Increase in the sub-G1/apoptotic fraction compared to vehicle ([1]; 10 ppm): 4.6 fold; Mammosphere growth ([2]; 0.5 ppm, p<0.05): inhibited to a lesser degree |
| CC1=CC(O/C=C2\Cc3c(n(C)c4ccccc34)C2=O)OC1=O (racemic) [EG-5, (±) (2E)-4-methyl-2-(4-methyl-5-oxo-2,5-dihydrofuran-2-yloxymethylene)-1,4-dihydro-2H-cyclopenta[b]indol-3-one] | – | – | >15 | >15 | >15 | >15 | 13 | 17.5 | 7.5 | >15 ppm | >15 | 8.8 | 3.9 | completely block mammosphere formation | 35+6.9% | 23+5% | 3.7 | >15 | – | – | Cell Cycle Distribution G1 ([14]; 10 ppm): 82.29%; Cell Cycle Distribution G2 ([14]; 10 ppm): 10.50%; Cell Cycle Distribution S ([14]; 10 ppm): 4.480%; SubG1/Apoptosis ([14]; 10 ppm): 0.49; Cell Cycle Distribution G1 ([1]; MDA-MB-231, 10 ppm): 34.74%; Cell Cycle Distribution G2 ([1]; MDA-MB-231, 10 ppm): 35.70%; Cell Cycle Distribution S ([1]; MDA-MB-231, 10 ppm): 14.59%; SubG1/Apoptosis ([1]; MDA-MB-231, 10 ppm): 11.32 |
| CC1=CC(O/C=C2/C(=O)c3c(c4cc(-c5scc6c5OCCO6)ccc4n3C)C2C)OC1=O (stereo not shown) [ST-362, (2E)-2-[(2,5-dihydro-4-methyl-5-oxofuran-2-yloxy)methylene]-1,2-dihydro-7-(2,3-dihydrothieno[3,4-b][1,4]dioxin-7-yl)-1,4-dimethyl-cyclopenta[b]indole-3-(4H)-one] | significantly inhibit mammosphere formation | 5 | 7.5 | 6.0 | 7.3 | 4.3 | 9.8 | 8.1 | 2.9 | >15 ppm | 2.9 | 8.6 | 2.8 | completely block mammosphere formation | 6+1.7% | 8.3+3.5% | – | >15 | block mammosphere growth | exhibited a looser morphology and appeared to be dissociating | IC20 concentration ([9]; MDA-231, XTT): 1.5 ppm; Cell Cycle Distribution G1 ([14]; 5 ppm): 83.42%; Cell Cycle Distribution G2 ([14]; 5 ppm): 12.86%; Cell Cycle Distribution S ([14]; 5 ppm): 1.580%; SubG1/Apoptosis ([14]; 5 ppm): 0.72; Cell Cycle Distribution G1 ([1]; MDA-MB-231, 5 ppm): 42.17%; Cell Cycle Distribution G2 ([1]; MDA-MB-231, 5 ppm): 37.93%; Cell Cycle Distribution S ([1]; MDA-MB-231, 5 ppm): 11.90%; SubG1/Apoptosis ([1]; MDA-MB-231, 5 ppm): 4.17 |
| CC1=CC(O/C=C2/C(=O)c3c(c4cc(-c5cccs5)ccc4n3C)C2C)OC1=O (stereo not shown) [ST-357, (2E)-1,4-dimethyl-2-((4-methyl-5-oxo-2,5-dihydrofuran-2-yloxy)methylene)-7-(thiophen-2-yl)-1,2-dihydrocyclopenta[b]indol-3(4H)-one] | significantly inhibit mammosphere formation | 3 | >15 | >15 | >15 | >15 | 14.4 | >20 | 5.0 | 5.3 ppm and 5.4 ppm | >15 | >10 | 4.5 | completely block mammosphere formation | 22+8.5% | 6+2% | – | >15 | significant reduction in mammosphere growth | exhibited a looser morphology and appeared to be dissociating | – |
| CC1=CC(O/C=C2\Cc3c(n(C)c4cc(-c5cccs5)ccc34)C2=O)OC1=O (racemic) [MEB-55, (±) 2E-4-methyl-2-(4-methyl-5-oxo-2,5-dihydrofuran-2-yloxymethylene)-6-thiophen-2-yl-1,4-dihydro-2H-cyclopenta[b]indol-3-one] | significantly inhibit mammosphere formation | 5 | 12.8 | 12.8 | 8.2 | 8.1 | 12 | >12.8 | 3.9 | 8.8 ppm | 9.7 | 5.0 | 2.7 | completely block mammosphere formation | 20.7 ± 8.6% | 9.3+1.5% | 4.6 | >15 | block mammosphere growth | exhibited a looser morphology and appeared to be dissociating | Cell Cycle Distribution G1 ([14]; 5 ppm): 78.96%; Cell Cycle Distribution G2 ([14]; 5 ppm): 11.54%; Cell Cycle Distribution S ([14]; 5 ppm): 5.930%; SubG1/Apoptosis ([14]; 5 ppm): 0.57; Cell Cycle Distribution G1 ([1]; MDA-MB-231, 5 ppm): 49.61%; Cell Cycle Distribution G2 ([1]; MDA-MB-231, 5 ppm): 28.33%; Cell Cycle Distribution S ([1]; MDA-MB-231, 5 ppm): 14.51%; SubG1/Apoptosis ([1]; MDA-MB-231, 5 ppm): 3.88 |
